The record followed here is US8552135B2, “Substituted polyalkoxysiloxane compositions and methods of use” (One Unlimited, Inc., priority 2006, dated 2013).

SMILES strings stand for the structures.

For this test, the system named is Pseudomonas aeruginosa. The test is described as follows: burn wound infection treated with Nu-3 applied with glycerol polysiloxanes. The class given is in vivo. Conditions: burn wound infections. An excerpt: A particularly important medical treatment application is the healing effect of some of the hydrophilic substituted polydialkoxysiloxanes on radiation burn injuries. Skin irritation and burning is common in cases where patients undergo radiation treatment associated with certain cancers. Topical application of glycerol substituted polydialkoxysilane compositions relieves pain and accelerates healing compared to treatment with commonly used burn or cortisone ointments. […] Nubiotics are a new class of antibiotic agents with broad spectrum activity.

For `CCCCOP(=O)(O)OC[C@H]1O[C@@H](n2cc(C)c(=O)[nH]c2=O)C[C@@H]1OP(=O)(O)O` [Nu-3, butyl-phosphate-5′-thymidine-3′-phosphate], the “antibacterial effectiveness of Nu-3 when applied with glycerol polysiloxanes” value is listed as “only a slight decrease in antibacterial effectiveness”.
